Data on 5 molecules can be found in US11267861B2, “Peptide-oligourea foldamer compounds and methods of their use” (UREKA SARL, priority 2016, dated 2022).

One data set deals with T1, mouse GLP-1 receptor (Mus musculus, UniProt O35659).
T1 construct: mouse GLP-1 receptor endogenously expressed in βTC6 cells; endogenous in cells; host or cells: βTC6 cells
T1 sequence (O35659 22-463): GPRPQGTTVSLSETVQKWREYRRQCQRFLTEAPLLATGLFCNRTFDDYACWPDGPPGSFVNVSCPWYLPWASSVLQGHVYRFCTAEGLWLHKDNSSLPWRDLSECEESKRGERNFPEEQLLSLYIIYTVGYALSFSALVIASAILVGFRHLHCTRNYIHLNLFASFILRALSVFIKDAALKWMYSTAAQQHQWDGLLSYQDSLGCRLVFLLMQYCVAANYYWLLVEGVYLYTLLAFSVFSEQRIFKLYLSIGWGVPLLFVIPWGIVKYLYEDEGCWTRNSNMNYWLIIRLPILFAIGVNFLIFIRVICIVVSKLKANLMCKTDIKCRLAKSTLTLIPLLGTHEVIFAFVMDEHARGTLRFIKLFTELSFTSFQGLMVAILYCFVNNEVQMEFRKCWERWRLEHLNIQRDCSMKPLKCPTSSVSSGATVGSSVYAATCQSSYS
Nature of the data set: GLP-1 functional assay: agonist activity by cAMP production (HTRF) in βTC6 cells. It counts as cell-based. The procedure: For stimulated control measurement, separate assay wells contain 10 nM GLP-1(7-37) were utilized.
Following incubation, the cells were lysed and the fluorescence acceptor (D2-labeled cAMP) and fluorescence donor (anti-cAMP antibody labeled with europium cryptate) were added. […] The results are expressed as a percent of the control response to 10 nM GLP-1(7-37). The standard reference agonist is GLP-1(7-37), which was tested in each experiment at several concentrations to generate a concentration-response curve from which its EC50 value was calculated.
(§1) HTRF (Homogeneous Time-Resolved Fluorescence) principle. The HTRF technology is based on time resolved fluorescence energy transfer (TR-FRET), which occurs between long-lived fluorophore Europium or Terbium Cryptates, and EuK or Tb respectively, as a donor and the allophycocyanin XL665, d2 or Red as acceptor. Many compounds and proteins present in biological fluids or serum are naturally fluorescent, and the use of conventional, prompt fluorescence leads to serious limitations in assay sensitivity. The use of long-lived fluorophore combined with time-resolved detection (a delay between excitation and emission detection) minimizes prompt fluorescence interference.
A general note: Cyclic AMP is a second messenger, typically raised through Gs and lowered through Gi signalling.

Another data set has as its system chymotrypsin. As to the kind of experiment: Enzymatic degradation by chymotrypsin. Conditions: compared to native peptide GLP-1 (SEQ ID NO: 1). Type of data set: in vitro ADME. On the procedure:
Enzymatic Degradation—Chymotrypsin and Trypsin. Stock solutions of the compounds were prepared at a concentration of 400 μM in a solution of 50 mM HEPES buffer, 50 mM NaCl, 0.05% Tween-80, pH 8.0. Stock solution of the chymotrypsin or trypsin was prepared at a concentration of 250 μg/mL in water. Stability of compounds to chymotrypsin was assessed by conducting a protease reaction in a 96-well plates at room temperature. Each well received 10 μL of HEPES buffer, 38 μL of the solution of compound to be assayed (final concentration 304 μmol/L), and 2 μL of the enzyme solution (final concentration 10 μg/mL) for a total volume of 50 μL. Each compound was also incubated in the absence of the enzyme (12 μL of HEPES buffer and 38 μL of the compound).
(§2) At the indicated time (5, 10, 15, 30 and 60 minute(s)) a 10 μL aliquot was removed from each experimental reaction and pipet into 100 μL of 1% TFA solution to quench the reaction (t=0 minutes was determined using the reaction without enzyme). A portion of the quenched reaction solution was analyzed by HPLC. The time course of peptide degradation was determined by integrating the area of each peak in a series of HPLC traces. Another portion of the quenched reaction was analyzed by LC-MS for identification of each peptide fragment.

The target of data set [1] is T2, Carboxypeptidase A (EC 3.4.17.1) (Bos taurus, UniProt P00730).
T2 construct: from bovine pancreas (Fluka), milky suspension; purchased Fluka; host or cells: bovine pancreas
T2 sequence (P00730 111-419): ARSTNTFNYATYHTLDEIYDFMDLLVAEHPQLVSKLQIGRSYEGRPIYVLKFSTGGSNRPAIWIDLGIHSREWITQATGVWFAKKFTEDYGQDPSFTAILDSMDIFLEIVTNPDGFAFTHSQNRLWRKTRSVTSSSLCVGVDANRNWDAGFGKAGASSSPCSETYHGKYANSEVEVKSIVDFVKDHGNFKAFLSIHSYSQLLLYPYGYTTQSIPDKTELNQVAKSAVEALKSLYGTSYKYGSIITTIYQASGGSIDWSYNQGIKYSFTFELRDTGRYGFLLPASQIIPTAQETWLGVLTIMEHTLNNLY
Nature of the data set: Enzymatic degradation by carboxypeptidase A. It counts as in vitro ADME, bovine. Conditions: same results = more stable than the native peptides. The procedure:
Enzymatic Degradation—Carboxypeptidase A. Carboxypeptidase A (EC 3.4.17.1) from bovine pancreas (Fluka), milky suspension, stock solution in PBS buffer (pH 7.5, 0.01 M). For each degradation experiment, stock solutions of the peptidic substrate and the enzyme were made using phosphate-buffered saline (PBS) buffer solution. The enzyme concentrations of the stock solutions were selected such that the standard substrates were totally degraded after a maximum of 15 min (ratio 2[enzyme]:100[substrate]). PBS buffer solution (10 mM sodium phosphate, 0.14 M NaCl) was prepared as follows: Solution A (4.75 mL of 0.2 M NaH2PO4.H2O), solution B (20.25 mL of 0.2 M Na2HPO4.H2O), NaCl (4.5 g) and H2O (25 mL) were stirred for 15 min at room temperature and diluted tenfold with H2O. The pH was adjusted either with NaOH (1 M) or with HCl (1 M) prior to use. A solution of the substrate in PBS buffer (pH 7.5, 0.01 M) and a solution of the required amount of enzyme, were mixed and incubated at 25° C. for 4 hours. Degradation was stopped with concentrated AcOH, and buffer solution was added so that the total volume reached 150 μL.
The resulting mixture was analyzed by reversed-phase HPLC. A mixture of CH3CN/H2O (0.1% TFA) was used as eluent. Gradients were 10% CH3CN to 100% CH3CN in 10 minutes. The flow rate, for all separations, was 1 mL·min^−1.

Another data set has as its target T3, MDM2 (Homo sapiens, UniProt Q00987).
T3 construct: GST-Flag-Mdm2 (AA1-188; GI:4505136)
As to the kind of experiment: MDM2/p53 interaction HTRF assay. Type of data set: biochemical. The procedure: (§3) Functional Assay to Examine Bioactivity of MDM2 and MDMX Antagonists. The compounds were received dissolved in 100% DMSO at a final concentration of 10 mM and frozen. After complete defrosting and sonication, all compounds were diluted in 100% DMSO at both 0.4 mM, 0.04 and 0.004 mM, and distributed into two 96-well compounds daughter plates (Table 2).
(§4) Each compound was evaluated in duplicate on both (MDM2 or MDMX)/p53 interaction and on a positive TR-FRET control protein in a 384-well reaction plate. […] The reference compound Nutlin-3 is integrated in the compound daughter plate and was used under the same conditions.
as §1, with “interference. […]” for “interference.”
In general terms: In TR-FRET formats the signal depends on donor and acceptor labels being close together.

Another data set concerns the target T4, MDMX (Homo sapiens, UniProt O15151).
T4 construct: GI:88702790)
T4 sequence (O15151 1-174): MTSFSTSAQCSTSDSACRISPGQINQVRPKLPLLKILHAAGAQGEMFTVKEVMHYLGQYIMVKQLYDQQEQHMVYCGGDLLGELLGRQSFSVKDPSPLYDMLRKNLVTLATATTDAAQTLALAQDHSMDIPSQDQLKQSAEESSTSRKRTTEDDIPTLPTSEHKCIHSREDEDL
As to the kind of experiment: MDMX/p53 interaction HTRF assay. It counts as biochemical. On the procedure:
as §3, §4
as §1, with “interference. […]” for “interference.”

The next data set concerns trypsin. As to the kind of experiment: Enzymatic degradation by trypsin. Conditions: compared to native peptide GLP-1 (seq. 1). Type of data set: in vitro ADME. The procedure:
Enzymatic Degradation—Chymotrypsin and Trypsin. Stock solutions of the compounds were prepared at a concentration of 400 μM in a solution of 50 mM HEPES buffer, 50 mM NaCl, 0.05% Tween-80, pH 8.0. […] Stability of compounds to chymotrypsin was assessed by conducting a protease reaction in a 96-well plates at room temperature. […] Each compound was also incubated in the absence of the enzyme (12 μL of HEPES buffer and 38 μL of the compound).
as §2

For data set [2] the following is noted: in vivo; cited from earlier work.

pEC50: −log10 of the molar value. Like-named read-outs stand apart in the source and are kept apart here. Numbered stars: 1 amine (or outer) side, 2 acyl side, 3 side chain; on linkers, the order of the positions; unused ones are H or OH. Peptide text beside a SMILES is read from it. * marks the point of attachment. X10 = C[C@@H](CN*)NC(=O)[C@@H](N)Cc1c[nH]cn1; X3 = O=C(O)[C@@H]1CCCN1C(=O)NC[C@H](CO)N*; X5 = C[C@@H](O)[C@H](N)CN*; CO = O=C([*:1])[*:2]

T3 sequence (Q00987 1-188): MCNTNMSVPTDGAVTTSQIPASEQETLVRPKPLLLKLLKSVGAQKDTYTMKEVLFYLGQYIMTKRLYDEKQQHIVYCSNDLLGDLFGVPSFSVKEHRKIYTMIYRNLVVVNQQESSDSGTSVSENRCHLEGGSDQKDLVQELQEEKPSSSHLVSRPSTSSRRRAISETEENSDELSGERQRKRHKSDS

For the molecule `CC[C@H](C)[C@H](NC(=O)[C@H](Cc1ccccc1)NC(=O)[C@H](CCC(=O)O)NC(=O)[C@H](CCCCN)NC(=O)[C@H](C)NC(=O)[C@H](C)NC(=O)[C@H](CCC(N)=O)NC(=O)CNC(=O)[C@H](CCC(=O)O)NC(=O)[C@H](CC(C)C)NC(=O)[C@H](Cc1ccc(O)cc1)NC(=O)[C@H](CO)NC(=O)[C@H](CO)NC(=O)[C@@H](NC(=O)[C@H](CC(=O)O)NC(=O)[C@H](CO)NC(=O)[C@@H](NC(=O)[C@H](Cc1ccccc1)NC(=O)[C@@H](NC(=O)CNC(=O)[C@H](CCC(=O)O)NC(=O)[C@H](C)NC(=O)[C@@H](N)Cc1c[nH]cn1)[C@@H](C)O)[C@@H](C)O)C(C)C)C(=O)N[C@@H](C)C(=O)N[C@H](CNC(=O)N[C@@H](CC(C)C)C(=O)N[C@H](C(=O)N[C@@H](CCCCN)C(=O)NCC(=O)N[C@@H](CCCNC(=N)N)C(=O)NCC(=O)O)C(C)C)Cc1c[nH]c2ccccc12` [Compound 4], the negative-log EC50 (pEC50) at mouse GLP-1 receptor was 9.59. The “half-life in the chymotrypsin degradation test compared to native peptide” value in the data set with chymotrypsin was “longer half-life”. In data set [1], the “stability with carboxipeptidase A compared to native peptides” value is reported as “same results”.
Turning to `CC(C)C[C@H](NC(=O)[C@H](C)NC(=O)[C@H](Cc1c[nH]c2ccccc12)NC(=O)[C@H](Cc1ccc(O)cc1)NC(=O)[C@H](CCC(=O)O)NC(=O)[C@H](C)NC(=O)[C@H](Cc1ccccc1)NC(=O)[C@H](CO)NC(=O)NC[C@@H](N)[C@@H](C)O)C(=O)N[C@@H](CC(C)C)C(=O)N[C@@H](CO)CNC(=O)N1CCC[C@H]1C(=O)O` [Compound 23] ({X5-CO}-SFAEYWALL-X3; N-terminus and C-terminus assumed), the pEC50 at MDM2 is 9.12; at MDMX, 8.20.
As to “{X10-CO}-EGTFTSDLSKQLEEEAVRLFIEWLKNGGPSSGAPPSKKKKKK-NH2 [Compound 67]”, at mouse GLP-1 receptor (read-out: EC50 (nM), GLP-1 Functional Assay), the EC50 amounted to 0.082 nM.
In the case of `CC[C@H](C)[C@H](NC(=O)[C@H](Cc1ccccc1)NC(=O)NC[C@H](CCC(=O)O)NC(=O)[C@H](CCCCN)NC(=O)[C@H](C)NC(=O)[C@H](C)NC(=O)[C@H](CCC(N)=O)NC(=O)CNC(=O)[C@H](CCC(=O)O)NC(=O)[C@H](CC(C)C)NC(=O)[C@H](Cc1ccc(O)cc1)NC(=O)[C@H](CO)NC(=O)[C@H](CO)NC(=O)[C@@H](NC(=O)[C@H](CC(=O)O)NC(=O)[C@H](CO)NC(=O)[C@@H](NC(=O)[C@H](Cc1ccccc1)NC(=O)[C@@H](NC(=O)CNC(=O)[C@H](CCC(=O)O)NC(=O)[C@H](C)NC(=O)[C@@H](N)Cc1c[nH]cn1)[C@@H](C)O)[C@@H](C)O)C(C)C)C(=O)N[C@@H](C)C(=O)N[C@@H](Cc1c[nH]c2ccccc12)C(=O)N[C@@H](CC(C)C)C(=O)N[C@H](C(=O)N[C@@H](CCCCN)CNC(=O)NCC(=O)N[C@@H](CCCNC(=N)N)CNC(=O)NCC(=O)O)C(C)C` [Compound 11], the “half-life in the trypsin degradation test compared to native peptide” value in the data set with trypsin is “longer half-life”.
Regarding Albiglutide, in data set [2], the half-life result is reported as “four to seven”.

As usually defined, the pEC50 is the EC50 on a negative log10 scale, so that one unit is a factor of ten. Low readings indicate a large EC50, high ones a small EC50. In general, EC50 refers to the concentration giving half of the maximal effect.
